Results published in patent US20240360091A1, “GLUN2B-SUBUNIT SELECTIVE ANTAGONISTS OF THE N-METHYL-D-ASPARTATE RECEPTORS WITH ENHANCED POTENCY AT ACIDIC PH” (Emory University, priority 2021, published 2024).
Like-named read-outs stand apart in the source and are kept apart here.

Legend:
human GluN1/GluN2B = human GluN1/GluN2B (Homo sapiens (Human), UniProt Q05586+Q13224); test: Two electrode voltage-clamp recordings from Xenopus laevis oocytes, GluN2B potency and pH dependence; format: cell-based; conditions: for pH Boost: ratio of IC50 at pH 7.6 to IC50 at pH 6.9
Chain of human GluN1/GluN2B (Q13224 27-1484, other chains not shown): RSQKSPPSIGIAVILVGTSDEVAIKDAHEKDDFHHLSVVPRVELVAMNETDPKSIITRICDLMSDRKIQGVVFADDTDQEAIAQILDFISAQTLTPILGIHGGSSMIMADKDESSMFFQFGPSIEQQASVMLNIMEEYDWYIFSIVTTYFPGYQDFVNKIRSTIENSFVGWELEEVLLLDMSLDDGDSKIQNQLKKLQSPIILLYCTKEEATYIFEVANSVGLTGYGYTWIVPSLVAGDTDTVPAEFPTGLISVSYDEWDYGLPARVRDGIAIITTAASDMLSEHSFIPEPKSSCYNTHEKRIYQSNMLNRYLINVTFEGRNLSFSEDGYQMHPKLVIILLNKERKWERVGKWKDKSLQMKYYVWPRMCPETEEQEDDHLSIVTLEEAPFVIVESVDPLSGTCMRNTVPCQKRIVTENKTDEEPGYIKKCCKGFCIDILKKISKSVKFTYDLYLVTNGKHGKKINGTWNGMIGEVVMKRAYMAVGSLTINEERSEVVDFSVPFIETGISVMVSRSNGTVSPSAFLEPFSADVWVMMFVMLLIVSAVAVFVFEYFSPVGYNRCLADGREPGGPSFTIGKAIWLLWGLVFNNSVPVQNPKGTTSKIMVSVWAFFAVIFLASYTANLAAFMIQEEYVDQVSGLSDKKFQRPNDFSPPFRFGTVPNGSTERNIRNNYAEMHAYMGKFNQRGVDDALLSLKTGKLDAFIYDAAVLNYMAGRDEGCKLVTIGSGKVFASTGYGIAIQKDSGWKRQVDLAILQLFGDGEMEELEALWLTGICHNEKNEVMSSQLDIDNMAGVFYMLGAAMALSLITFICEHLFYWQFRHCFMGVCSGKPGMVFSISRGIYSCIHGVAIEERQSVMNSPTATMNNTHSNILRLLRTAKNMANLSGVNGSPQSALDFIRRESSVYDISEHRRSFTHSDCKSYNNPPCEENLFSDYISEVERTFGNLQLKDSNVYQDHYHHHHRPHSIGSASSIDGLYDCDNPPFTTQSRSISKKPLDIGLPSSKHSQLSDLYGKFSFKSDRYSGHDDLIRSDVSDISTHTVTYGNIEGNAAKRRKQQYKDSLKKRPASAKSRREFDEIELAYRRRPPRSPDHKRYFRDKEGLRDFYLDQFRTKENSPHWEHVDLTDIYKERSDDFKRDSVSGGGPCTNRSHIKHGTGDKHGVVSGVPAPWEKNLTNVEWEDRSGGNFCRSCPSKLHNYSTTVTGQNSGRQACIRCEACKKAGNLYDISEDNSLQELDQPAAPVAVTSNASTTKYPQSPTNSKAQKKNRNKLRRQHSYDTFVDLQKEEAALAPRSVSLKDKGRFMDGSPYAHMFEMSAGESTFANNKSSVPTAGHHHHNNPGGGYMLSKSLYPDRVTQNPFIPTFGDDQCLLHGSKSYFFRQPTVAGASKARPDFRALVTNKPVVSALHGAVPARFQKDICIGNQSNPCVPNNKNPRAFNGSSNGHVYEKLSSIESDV
Procedure: Two Electrode Voltage-Clamp Recordings from Xenopus laevis Oocytes
Stage V-VI Xenopus laevis unfertilized oocytes were purchased from Ecocyte (Austin, Texas) and injected with 5 ng of GluN1 and 10 ng of GluN2B cRNAs. The cDNAs for human GluN1 and GluN2B, encoding NCBI reference sequences NM_007327.3 and NM_000834.3, respectively, were linearized and cRNAs made as previously described (Traynelis et al., J Neurosci, 1998, 18(16):6163-75). After injection, the oocytes were incubated in Barth's culture solution (88 mM NaCl, 1 mM KCl, 2.4 mM NaHCO3, 10 mM HEPES, 0.82 mM MgSO4, 0.33 mM Ca(NO3)2, 0.41 mM CaCl2), 10 U/mL PenStrep, and 0.1 mg/mL gentamycin, pH 7.4) at 18° C. Two electrode voltage-clamp (TEVC) recordings were made at 22-23° C., 2-7 days after the injection, using Warner OC725C amplifiers (VHOLD=−40 mV). Briefly, the oocytes were perfused in a recording solution (90 mM NaCl, 1 mM KCl, 10 mM HEPES, 0.01 mM EDTA, and 0.5 mM BaCl2) adjusted to either pH 7.6 or 6.9 by addition of NaOH or HCl, respectively (pH 6.9 solutions were prepared by addition of HCl to pH 7.6 solutions to maintain an equal concentration of Na^+ ions in both solutions). Concentration-response curves of the compounds were obtained by application of increasing concentrations of each individual compound until steady state conditions were obtained, in the presence of saturating agonist concentrations (i.e., 100 μM glutamate and 30 μM glycine). In general, oocyte recordings were made from 4-10 oocytes per experiment (i.e., oocyte injection cycle) from ≥two experiments. The concentration-response relationship for each oocyte was fit by equation (1),
Percent Response=(100−minimum)/(1+([concentration]/IC50)^nH)+minimum (1)
where minimum is the residual response in saturating concentration of each individual compound (constrained to be ≥0), and IC50 is the concentration of compound that causes half-maximal inhibition, and nH is the Hill slope.

[1] = system: horizontal locomotor activity of mice; test: Locomotor activity; format: in vivo, mouse; conditions: 0.3 mg/kg IP, two hours
Description: (§1) The locomotor and rotarod studies were approved by the Georgia State University IACUC, an AAALAC accredited institution under the supervision of licensed veterinarians. Mice were group housed, provided nestlets and shelters with access to food pellets and water ad libitum under a 12-hour light/dark cycle.
For locomotor activity measurements, mice (C57B16, >90 days old, Jackson Labs) were placed in a closed (with light on) activity monitoring box for one hour to habituate prior to drug testing. After one hour, animals were removed and injected (IP) with drug and then returned to the activity monitoring box and total locomotor activity was monitored for two hours. The total number of light beam breaks in the cage (horizontal) was determined by a computer and results averaged for each drug. Results were analyzed by ANOVA and Dunnett's post hoc test to compare horizontal activity of drug-treated groups to vehicle controls. Male animals were used for these behavioral tests given only male mice were used in the MCAO transient ischemia studies.

[2] = system: motor coordination of mice on rotarod; test: Rotarod performance; format: in vivo, mouse; conditions: 30 mg/kg IP, all four trials
Procedure: as §1
For rotarod experiments, male C57BL/6 mice (>90 days old) were tested using a Rotamax 4/8 rotarod (Columbus Instruments, Columbus, Ohio). Prior to training and testing, the mice were brought to the testing room and allowed to acclimate for two hours prior to any further handling. Mice were placed on a rotating rod (5 rpm), 3.8 cm in diameter and 8 cm wide, elevated 30 cm from the floor of a chamber. After 10 sec of rotation at a fixed velocity, the rotation was slowly accelerated from 5 to 35 rpm over a 5 min period. The duration of time that the mouse could stay on the rotarod, without hanging on for a full rotation or without falling, was recorded. Mice were trained 4 times at 25 min inter-trial intervals on each day for two days. On day three, mice were randomly assigned to treatment groups and administered test drug or vehicle (via IP administration) 25 min prior to testing (4 trials with inter-trial interval of 25 min). Individuals performing the experiment were blinded to the identity of each treatment group. Results were analyzed by ANOVA and Dunnett's post hoc test to compare duration of time on the rotating rod of drug-treated groups to the vehicle controls.

GluN2B = conditions: between pH 6.8 and pH 7.5; cited from earlier work
nonhuman primates = conditions: acute administration; cited from earlier work
[3] = pH 6.9, read-out: IC50 (μM) pH 6.9
[4] = pH 7.6, read-out: IC50 (μM) pH 7.6

Which results are given for `CCCc1ccc(N2CCN(C[C@@H](O)COc3ccc(NC(N)=O)cc3)CC2)cc1` [Compound 10224]?
IC50 (human GluN1/GluN2B; [3]): 0.034 µM; IC50 (human GluN1/GluN2B; [4]): 0.171 µM; pH Boost (human GluN1/GluN2B): 5.0

Which results are given for `NC(=O)Nc1ccc(OC[C@H](O)CN2CCN(c3ccc(F)cc3)CC2)cc1` [Compound 10225]?
IC50 (human GluN1/GluN2B; [3]): 0.097 µM; IC50 (human GluN1/GluN2B; [4]): 0.527 µM; pH Boost (human GluN1/GluN2B): 5.4

With `O=C1Cc2cc(OC[C@H](O)CN3CCN(c4ccc(Cl)cc4)CC3)ccc2N1` [Compound 10228] as the compound, how does the “potency against GluN2B compared to corresponding S enantiomer” value (human GluN1/GluN2B) read?
The value was “lower potency”.

And the IC50 (human GluN1/GluN2B; [3])?
The IC50 was 0.121 µM.

What about the IC50 (human GluN1/GluN2B; [4]) of the same compound?
The IC50 was 0.592 µM.

What about the “pH Boost” value (human GluN1/GluN2B) of the same compound?
Its value is 4.9.

With `CS(=O)(=O)Nc1ccc(OC[C@H](O)CN2CCN(c3ccc(F)c(F)c3)CC2)cc1` [Compound 10233] as the compound, how does the “potency against GluN2B compared to corresponding S enantiomer” value (human GluN1/GluN2B) read?
Its value is “lower potency”.

And the IC50 (human GluN1/GluN2B; [3])?
Its IC50 is 0.047 µM.

What about the IC50 (human GluN1/GluN2B; [4]) of the same compound?
The IC50 was 0.294 µM.

What about the “pH Boost” value (human GluN1/GluN2B) of the same compound?
The value was 6.3.

Which results are given for `CCCCc1ccc(N2CCN(C[C@H](O)COc3ccc(O)cc3)CC2)cc1` [Compound 10235]?
IC50 (human GluN1/GluN2B; [3]): 0.398 µM; IC50 (human GluN1/GluN2B; [4]): 4.38 µM; pH Boost (human GluN1/GluN2B): 11.0

Which IC50 (human GluN1/GluN2B; [3]) does the source give for `Oc1ccc(OC[C@H](O)CN2CCN(c3ccccc3)CC2)cc1` [Compound 10243] here?
The IC50 was 0.071 µM.

And the IC50 (human GluN1/GluN2B; [4])?
The IC50 was 0.574 µM.

And the “pH Boost” value (human GluN1/GluN2B)?
Its value is 8.1.

For `Cc1ccc(N2CCN(C[C@@H](O)COc3ccc(O)cc3)CC2)cc1` [Compound 10244], which IC50 (human GluN1/GluN2B; [3]) is on record?
Its IC50 is 0.047 µM.

And the IC50 (human GluN1/GluN2B; [4])?
The IC50 was 0.305 µM.

And the “pH Boost” value (human GluN1/GluN2B)?
Its value is 6.5.

Which results are given for `CCc1ccc(N2CCN(C[C@@H](O)COc3ccc(O)cc3)CC2)cc1` [Compound 10245]?
IC50 (human GluN1/GluN2B; [3]): 0.025 µM; IC50 (human GluN1/GluN2B; [4]): 0.385 µM; pH Boost (human GluN1/GluN2B): 15.4

Which IC50 (human GluN1/GluN2B; [3]) does the source give for `CC(C)c1ccc(N2CCN(C[C@@H](O)COc3ccc(O)cc3)CC2)cc1` [Compound 10247] here?
Its IC50 is 0.144 µM.

What about the IC50 (human GluN1/GluN2B; [4]) of the same compound?
Its IC50 is 0.675 µM.

And the “pH Boost” value (human GluN1/GluN2B)?
The value was 4.7.

For `CCCCc1ccc(N2CCN(C[C@@H](O)COc3ccc(O)cc3)CC2)cc1` [Compound 10249], which “potency against GluN2B compared to corresponding S enantiomer” value (human GluN1/GluN2B) is on record?
The value was “lower potency”.

And the IC50 (human GluN1/GluN2B; [3])?
Its IC50 is 0.549 µM.

And the IC50 (human GluN1/GluN2B; [4])?
Its IC50 is 3.42 µM.

What about the “pH Boost” value (human GluN1/GluN2B) of the same compound?
Its value is 6.2.

Which IC50 (human GluN1/GluN2B; [3]) does the source give for `NC(=O)Nc1ccc(OC[C@H](O)CN2CCN(c3ccc(C(F)(F)F)cc3)CC2)cc1` [Compound 10272] here?
Its IC50 is 0.022 µM.

What about the IC50 (human GluN1/GluN2B; [4]) of the same compound?
Its IC50 is 0.128 µM.

And the “pH Boost” value (human GluN1/GluN2B)?
Its value is 5.8.

Which IC50 (human GluN1/GluN2B; [3]) does the source give for `NC(=O)Nc1ccc(OC[C@@H](O)CN2CCN(c3ccc(C(F)(F)F)cc3)CC2)cc1` [Compound 10294] here?
The IC50 was 0.03 µM.

What about the IC50 (human GluN1/GluN2B; [4]) of the same compound?
Its IC50 is 0.209 µM.

What about the “pH Boost” value (human GluN1/GluN2B) of the same compound?
The value was 7.0.

For `C[C@]12N[C@H](Cc3ccccc31)c1ccccc12` [MK-801], which “horizontal activity compared to the vehicle control” value [1] is on record?
Its value is “significant increase”.

Which IC50 (human GluN1/GluN2B; [3]) does the source give for `O=C1CCc2cc(OC[C@@H](O)CN3CCN(c4ccc(C(F)(F)F)cc4)CC3)ccc2N1` [NP10309] here?
The IC50 was 0.111 µM.

What about the IC50 (human GluN1/GluN2B; pH 6.9, read-out: IC50 value at pH 6.9) of the same compound?
Its IC50 is 0.111 µM.

What about the IC50 (human GluN1/GluN2B; [4]) of the same compound?
The IC50 was 0.717 µM.

What about the IC50 (human GluN1/GluN2B; pH 7.6, read-out: IC50 value at pH 7.6) of the same compound?
Its IC50 is 0.717 µM.

And the “pH Boost” value (human GluN1/GluN2B)?
The value was 6.5.

For `CC(C(O)c1ccc(O)cc1)N1CCC(Cc2ccccc2)CC1` (stereo not drawn) [ifenprodil, reference compound], which latency-to-fall score [2] is on record?
Its latency-to-fall score is “significant reduction”.

Which “pH sensitivity for inhibition of receptors” value (GluN2B) does the source give for `C[C@@H]([C@@H](O)c1ccc(O)cc1)N1CCC(O)(c2ccccc2)CC1` [traxoprodil] here?
The value was “does not possess a significant pH sensitivity”.

And the “cognitive effects in nonhuman primates” value (nonhuman primates)?
Its value is “produced cognitive impairments in a dose-dependent manner”.
